Laboratory results reported in patent US10669284B2, “Fused thiazolopyrimidine derivatives as MNKS inhibitors” (LIFEARC, priority 2015, dated 2020).

Columns and labels:
Full-length human MNK2 = molecular target: T1, Full-length human MNK2 (Homo sapiens, UniProt Q9HBH9, T379D); test: MNK2 biochemical IC50 assay (Caliper Mobility Shift Assay); conditions: read-out: P(IC50) MNK2 (converted)
T1 construct: GST (N); purchased Carna Biosciences 02-146; host or cells: baculovirus expression system

[1] = system: phosphorylation of eIF4E at ser209 in MV4.11 cell line; test: MNK cellular activity phospho-eIF4E detection assay (Alphascreen Surefire); assay type: cell-based; conditions: Homo sapiens; MV4.11 cell line, phospho-eIF4E (ser209) Alphascreen Surefire; read-out: P(IC50) elF4E (converted)
Method in brief: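 AlphaScreen SureFire sandwich-immunoassay readout of phospho-eIF4E Ser209 in lysed MV4.11 cells; acceptor then donor beads, each 1.5 hr at room temperature. Signal normalised to untreated DMSO-only controls; duplicate curves, values averaged over at least 2 independent experiments.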

Full-length human MNK1 = molecular target: T2, Full-length human MNK1 (Homo sapiens, UniProt Q9BUB5, T385D); test: MNK1 biochemical IC50 assay (Caliper Mobility Shift Assay); conditions: read-out: P(IC50) MNK1 (converted)
T2 construct: GST (N); purchased Carna Biosciences 02-145; host or cells: baculovirus expression system
T2 sequence (Q9BUB5 1-424 isoform Q9BUB5-2 T344D): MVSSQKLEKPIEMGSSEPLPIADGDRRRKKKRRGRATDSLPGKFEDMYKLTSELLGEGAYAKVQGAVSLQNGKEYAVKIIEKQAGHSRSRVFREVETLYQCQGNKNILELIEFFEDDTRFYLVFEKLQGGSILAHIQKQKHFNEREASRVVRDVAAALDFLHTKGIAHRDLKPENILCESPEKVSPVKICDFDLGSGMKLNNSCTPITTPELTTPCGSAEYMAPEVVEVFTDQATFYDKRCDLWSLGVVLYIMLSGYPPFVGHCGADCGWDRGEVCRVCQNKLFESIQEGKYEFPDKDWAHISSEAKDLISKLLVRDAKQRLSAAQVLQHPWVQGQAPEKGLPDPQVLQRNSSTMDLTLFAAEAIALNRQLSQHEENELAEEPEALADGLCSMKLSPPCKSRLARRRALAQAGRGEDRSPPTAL

T1 sequence (Q9HBH9 whole entry T379D): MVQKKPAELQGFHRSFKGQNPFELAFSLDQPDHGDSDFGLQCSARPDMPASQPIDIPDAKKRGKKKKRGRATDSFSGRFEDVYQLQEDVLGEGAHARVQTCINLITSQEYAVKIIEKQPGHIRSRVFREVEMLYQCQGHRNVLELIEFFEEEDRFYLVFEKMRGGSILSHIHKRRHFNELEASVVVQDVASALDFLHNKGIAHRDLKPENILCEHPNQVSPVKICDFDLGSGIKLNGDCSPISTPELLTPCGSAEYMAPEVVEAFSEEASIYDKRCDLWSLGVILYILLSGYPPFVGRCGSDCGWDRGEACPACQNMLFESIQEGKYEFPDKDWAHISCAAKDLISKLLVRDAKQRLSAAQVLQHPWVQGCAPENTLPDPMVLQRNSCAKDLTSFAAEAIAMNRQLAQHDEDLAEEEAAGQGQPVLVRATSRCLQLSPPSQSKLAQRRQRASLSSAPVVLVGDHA

## CO[C@@H]1CCCC[C@H]1Oc1cc(F)ccc1Nc1ncnc2sc(C(=O)NCCCN(C)C)nc12 [Example 20, N-[3-(dimethylamino)propyl]-7-[4-fluoro-2-[(1R,2R)-2-methoxycyclohexoxy]anilino]thiazolo[5,4-d]pyrimidine-2-carboxamide]
Full-length human MNK2
  IC50: 398 nM
[1]
  IC50: 316 nM
Full-length human MNK1
  IC50: 794 nM

## CC1Cc2ccccc2N1c1ncnc2sc(C(=O)NCC3CCNCC3)nc12 (stereo in doubt) [Example 134, 7-[(2R)-2-methylindolin-1-yl]-N-(4-piperidyl-methyl)thiazolo[5,4-d]pyrimidine-2-carboxamide]
Full-length human MNK2
  IC50: 25.1 nM
[1]
  IC50: 39.8 nM
Full-length human MNK1
  IC50: 31.6 nM

## CC1Cc2ccccc2N1c1ncnc2sc(C(=O)NC3CCOCC3)nc12 (stereo not drawn) [Example 122, 7-(2-Methylindolin-1-yl)-N-tetrahydropyran-4-yl-thiazolo[5,4-d]pyrimidine-2-carboxamide]
Full-length human MNK2
  IC50: 31.6 nM
[1]
  IC50: 50.1 nM
Full-length human MNK1
  IC50: 39.8 nM

## N#Cc1ccc2c(c1)CCN2c1ncnc2sc(C(=O)NC3CCOCC3)nc12 [Example 42, 7-(5-cyano-2,3-dihydro-1H-indol-1-yl)-N-(tetrahydro-2H-pyran-4-yl)[1,3]thiazolo[5,4-d]pyrimidine-2-carboxamide]
Full-length human MNK2
  IC50: 20 nM
[1]
  IC50: 31.6 nM
Full-length human MNK1
  IC50: 31.6 nM

## CC1Cc2ccccc2N1c1ncnc2sc(C(=O)NC3CCN(C)CC3)nc12 (stereo not drawn) [Example 123, 7-(2-Methylindolin-1-yl)-N-(1-methyl-4-piperidyl)thiazolo[5,4-d]pyrimidine-2-carboxamide]
Full-length human MNK2
  IC50: 15.8 nM
[1]
  IC50: 20 nM
Full-length human MNK1
  IC50: 25.1 nM

## O=C(NC1CCOCC1)c1nc2c(N3CC4(CC4)c4cc(F)ccc43)ncnc2s1 [Example 107, 7-(5′-fluorospiro[cyclopropane-1,3′-indoline]-1′-yl)-N-tetrahydropyran-4-yl-thiazolo[5,4-d]pyrimidine-2-carboxamide]
Full-length human MNK2
  IC50: 3.16 nM
[1]
  IC50: 2 nM
Full-length human MNK1
  IC50: 1.58 nM

## O=C(NC1CCOCC1)c1nc2c(N3CCc4cc(F)ccc43)ncnc2s1 [Example 66, 7-(5-fluoroindolin-1-yl)-N-tetrahydropyran-4-yl-thiazolo[5,4-d]pyrimidine-2-carboxamide]
Full-length human MNK2
  IC50: 3.98 nM
[1]
  IC50: 10 nM
Full-length human MNK1
  IC50: 5.01 nM

## O=C(NC1COC1)c1nc2c(N3CCc4cc(F)ccc43)ncnc2s1 [Example 76, 7-(5-fluoroindolin-1-yl)-N-(oxetan-3-yl)thiazolo[5,4-d]pyrimidine-2-carboxamide]
Full-length human MNK2
  IC50: 3.16 nM
[1]
  IC50: 7.94 nM
Full-length human MNK1
  IC50: 6.31 nM

## C[C@H]1Cc2ccccc2N1c1ncnc2sc(C(=O)NC3CCNCC3)nc12 [Example 132, 7-[(2S)-2-methylindolin-1-yl]-N-(4-piperidyl) thiazolo[5,4-d]pyrimidine-2-carboxamide]
Full-length human MNK2
  IC50: 15.8 nM
[1]
  IC50: 25.1 nM
Full-length human MNK1
  IC50: 20 nM

## CN1CCC(NC(=O)c2nc3c(N4CCc5cc(F)ccc54)ncnc3s2)CC1 [Example 67, 7-(5-fluoroindolin-1-yl)-N-(1-methyl-4-piperidyl)thiazolo[5,4-d]pyrimidine-2-carboxamide]
Full-length human MNK2
  IC50: 3.16 nM
[1]
  IC50: 3.98 nM
Full-length human MNK1
  IC50: 3.98 nM

## CNC(=O)c1nc2c(N3CCc4cc(F)ccc43)ncnc2s1 [Example 69, 7-(5-fluoroindolin-1-yl)-N-methyl-thiazolo[5,4-d]pyrimidine-2-carboxamide]
Full-length human MNK2
  IC50: 5.01 nM
[1]
  IC50: 6.31 nM
Full-length human MNK1
  IC50: 6.31 nM

## O=C(NC1CCOCC1)c1nc2c(N3CC(CCN4CCCC4)c4cc(F)ccc43)ncnc2s1 (stereo not drawn) [Example 149, 7-[5-fluoro-3-(2-pyrrolidin-1-ylethyl)indolin-1-yl]-N-tetrahydropyran-4-yl-thiazolo[5,4-d]pyrimidine-2-carboxamide]
Full-length human MNK2
  IC50: 50.1 nM
[1]
  IC50: 63.1 nM
Full-length human MNK1
  IC50: 31.6 nM

## CC(C)Oc1cc(F)ccc1Nc1ncnc2sc(C(=O)NC3CC4CCC(C3)N4C(=O)OC(C)(C)C)nc12 (stereo not drawn) [Example 6, tert-butyl 3-[[7-(4-fluoro-2-isopropoxy-anilino)thiazolo[5,4-d]pyrimidine-2-carbonyl]amino]-8-azabicyclo[3.2.1]octane-8-carboxylate]
Full-length human MNK2
  IC50: 398 nM
[1]
  IC50: 251 nM
Full-length human MNK1
  IC50: 794 nM

## CN1CCC(CNC(=O)c2nc3c(N4CCc5cccc(F)c54)ncnc3s2)CC1 [Example 93, 7-(7-fluoroindolin-1-yl)-N-[(1-methyl-4-piperidyl)methyl]thiazolo [5,4-d]pyrimidine-2-carboxamide]
Full-length human MNK2
  IC50: 158 nM
[1]
  IC50: 251 nM
Full-length human MNK1
  IC50: 200 nM

## CC(=O)Nc1ccc2c(c1)CCN2c1ncnc2sc(C(=O)NC3CCN(C)CC3)nc12 [Example 46, 7-[5-(Acetylamino)-2,3-dihydro-1H-indol-1-yl]-N-(1-methylpiperidin-4-yl)[1,3]thiazolo[5,4-d]pyrimidine-2-carboxamide]
Full-length human MNK2
  IC50: 200 nM
[1]
  IC50: 100 nM
Full-length human MNK1
  IC50: 501 nM

## CC1(C)CN(c2ncnc3sc(C(=O)NC4CCNCC4)nc23)c2ccccc21 [Example 162]
Full-length human MNK2
  IC50: 5.01 nM
[1]
  IC50: 7.94 nM
Full-length human MNK1
  IC50: 6.31 nM

## CC(C)CCNC(=O)c1nc2c(N3CC(CCN)c4ccccc43)ncnc2s1 (stereo not drawn) [Example 165, 7-[3-(2-aminoethyl)indolin-1-yl]-N-isopentyl-thiazolo[5,4-d]pyrimidine-2-carboxamide]
Full-length human MNK2
  IC50: 10 nM
[1]
  IC50: 15.8 nM
Full-length human MNK1
  IC50: 10 nM

## NCCC1CN(c2ncnc3sc(C(=O)NCCC(F)(F)F)nc23)c2ccccc21 (stereo not drawn) [Example 167, 7-[3-(2-aminoethyl)indolin-1-yl]-N-(3,3,3-trifluoropropyl)thiazolo [5,4-d]pyrimidine-2-carboxamide]
Full-length human MNK2
  IC50: 5.01 nM
[1]
  IC50: 15.8 nM
Full-length human MNK1
  IC50: 7.94 nM

## CC(C)Oc1c(F)cccc1Nc1ncnc2sc(C(=O)NCCCN(C)C)nc12 [Example 18, N-[3-(dimethylamino)propyl]-7-(3-fluoro-2-isopropoxy-anilino)thiazolo[5,4-d]pyrimidine-2-carboxamide]
Full-length human MNK2
  IC50: 50.1 nM
[1]
  IC50: 39.8 nM
Full-length human MNK1
  IC50: 50.1 nM

## O=C(NC1CCOCC1)c1nc2c(N3CC4(CCOCC4)c4ccccc43)ncnc2s1 [Example 108, 7-spiro[indoline-3,4′-tetrahydropyran]-1-yl-N-tetrahydropyran-4-yl-thiazolo[5,4-d]pyrimidine-2-carboxamide]
Full-length human MNK2
  IC50: 39.8 nM
[1]
  IC50: 31.6 nM
Full-length human MNK1
  IC50: 63.1 nM

## O=C(NC1COC1)c1nc2c(N3CCc4ccccc43)ncnc2s1 [Example 100, 7-indolin-1-yl-N-(oxetan-3-yl)thiazolo[5,4-d]pyrimidine-2-carboxamide]
Full-length human MNK2
  IC50: 20 nM
[1]
  IC50: 15.8 nM
Full-length human MNK1
  IC50: 25.1 nM

## CO[C@H]1CCC[C@@H](Oc2cc(F)ccc2Nc2ncnc3sc(C(=O)NCC4CCNCC4)nc23)C1 [Example 60, 7-[4-fluoro-2-[(1R,3S)-3-methoxycyclohexoxy]anilino]-N-(4-piperidylmethyl)thiazolo[5,4-d]pyrimidine-2-carboxamide]
Full-length human MNK2
  IC50: 1000 nM
[1]
  IC50: 631 nM
Full-length human MNK1
  IC50: 794 nM

## Nc1nc2c(N3CCc4cc(F)ccc43)ncnc2s1 [Example 83, 7-(5-Fluoroindolin-1-yl)thiazolo[5,4-d]pyrimidin-2-amine]
Full-length human MNK2
  IC50: 39.8 nM
[1]
  IC50: 126 nM
Full-length human MNK1
  IC50: 31.6 nM

## O=C(NC1CCOCC1)c1nc2c(N3CCc4ccccc43)ncnc2s1 [Example 106, 7-Indolin-1-yl-N-tetrahydropyran-4-yl-thiazolo[5,4-d]pyrimidine-2-carboxamide]
Full-length human MNK2
  IC50: 7.94 nM
[1]
  IC50: 20 nM
Full-length human MNK1
  IC50: 12.6 nM
